# According to US20040162422A1, “Chemical compounds” (priority 2001, published 2004):
# Experiments:
# [1] = biological target: T1, human adenosine A1 receptors (Homo sapiens, UniProt P30542); experiment: Reporter gene experiments in yeast (agonist activity, β-galactosidase/FDG readout); format: cell-based; set-up: key: equipotent concentration ratio relative to NECA = 1; settings: ECR = equipotent concentration ratio relative to NECA = 1; agonist potency, yeast reporter gene assay
# T1 construct: expressed in transfected cells
# T1 sequence (P30542 1-326): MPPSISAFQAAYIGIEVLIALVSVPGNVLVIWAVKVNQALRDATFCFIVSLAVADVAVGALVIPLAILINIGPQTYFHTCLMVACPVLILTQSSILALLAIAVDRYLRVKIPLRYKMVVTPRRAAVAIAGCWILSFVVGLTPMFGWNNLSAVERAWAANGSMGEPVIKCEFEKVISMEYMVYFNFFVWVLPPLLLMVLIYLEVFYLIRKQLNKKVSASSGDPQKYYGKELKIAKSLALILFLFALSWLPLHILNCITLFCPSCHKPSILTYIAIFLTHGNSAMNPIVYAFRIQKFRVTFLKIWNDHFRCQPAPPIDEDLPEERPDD
# Description: Reporter Gene Experiments in Yeast
# Agonist activity at human adenosine A1 receptors was measured in yeast cell lines expressing the adenosine A1 receptor together with a chimeric G-protein which linked receptor stimulation to the expression of the enzyme β-galactosidase. Cells were plated out in 96-well plates in culture medium to which was added 2 mM 3-AT (3-aminotriazole) to limit basal growth in the absence of agonist stimulation, and FDG (fluorescein di-β-D-galactopyranoside) as substrate for β-galactosidase, which converts FDG to fluorescein. For measurement of potency, agonists were added to the appropriate wells at a concentration range of approximately 10^−10-10^−5M and incubated at 30° C. for 18 hours. At this point the amount of fluorescein generated was measured in a spectrophotometer. From these readings, the concentration-dependence of the stimulation by the agonist can be calculated. One of the agonists tested on each 96-well plate was the standard non-selective agonist, N-ethylcarboxamidoadenosine (NECA), and the potency of all test agonists is expressed relative to that of the NECA standard.
# (ECR=equipotent concentration ratio relative to NECA=1)
# [2] = biological target: T2, human adenosine A3 receptors (Homo sapiens, UniProt P0DMS8); experiment: Reporter gene experiments in CHO cells (CRE/SPAP, inhibition of forskolin-stimulated SPAP production); format: cell-based; settings: ECR = equipotent concentration ratio relative to NECA = 1; agonist potency, CHO CRE/SPAP reporter gene assay
# T2 construct: expressed in transfected cells; host or cells: Chinese hamster ovary (CHO) cells with CRE/SPAP/HYG reporter
# T2 sequence (P0DMS8 1-318): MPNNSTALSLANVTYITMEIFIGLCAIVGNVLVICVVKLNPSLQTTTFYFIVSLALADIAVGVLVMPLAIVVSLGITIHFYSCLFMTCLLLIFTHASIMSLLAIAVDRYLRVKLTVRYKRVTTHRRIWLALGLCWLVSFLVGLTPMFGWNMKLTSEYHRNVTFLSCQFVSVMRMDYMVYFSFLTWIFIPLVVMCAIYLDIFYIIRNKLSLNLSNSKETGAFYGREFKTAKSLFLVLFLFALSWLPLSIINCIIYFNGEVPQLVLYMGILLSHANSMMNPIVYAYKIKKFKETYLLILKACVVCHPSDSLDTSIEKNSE
# From the text: The compounds useful in the invention are agonists at the adenosine A1 receptor. Preferably they are selective agonists at the adenosine A1 receptor. By selective is meant that the affinity for the A1 receptor is at least 2 times, preferably 5 times and more preferably 10 times greater than the other adenosine receptor subtypes, particularly A3. Agonist selectivity of compounds against other human adenosine receptors can be determined using Chinese hamster ovary (CHO) cells transfected with the gene for the relevant human adenosine receptor following a method based on that of Castanon, K V. and Spevak, W. (1994) Biochem. Biophys. Res. Commun. 198, 626-631. The CHO cells are also transfected with cyclic AMP response elements promoting the gene for secreted placental alkaline phosphatase (SPAP) (Wood, K V. (1995) Cuff. Opinion. Biotechnology, 6, 50-58). The effect of test compounds is determined by their effects on basal levels of cAMP (A2a) or on forskolin-enhanced cAMP (A1 and A3) as reflected by changes in levels of SPAP. EC50 values for compounds are determined as a ratio to that of the non-selective agonist N-ethyl carboxamidoadenosine (NECA). “Adenosine receptors: New opportunities for future drugs” (S. A. Poulsen et al, Bioorg. Med. Chem,. 1998, 6, 619-641) summarises disease conditions that may be treated with adenosine A1 agonists.
# Reporter Gene Experiments in CHO cells
# Agonist activity at human adenosine A3 receptors was measured in Chinese hamster ovary (CHO) cells containing the CRE/SPAP/HYG (CRE=cyclic AMP response element; HYG=hygromycin resistance; SPAP=secreted placental alkaline phosphatase) reporter gene elements, which upon stimulation of cAMP levels produced SPAP. A cell line was used which was stably transfected with the human adenosine A3 receptor in addition to the above elements. Cells were plated out in 96-well plates in culture medium and incubated at 37° C. for 1 hour. For measurement of potency, agonists were added to the appropriate wells at a concentration range of approximately 10^−10-10^−5M. 15 Min later, cAMP levels were stimulated by addition of a maximal concentration of forskolin. All cells were then incubated for a further 5 hours at 37° C., and cooled to room temperature, after which a substrate for the phosphatase (para-nitrophenol phosphate, pNPP), which is converted by SPAP to a coloured reagent) was then added and the 96-well plates were read in a plate reader. From these readings, the concentration-dependence of the inhibition by the agonist for forskolin-stimulated SPAP production can be calculated. As with the yeast assays, one of the agonists tested on each 96-well plate was the standard non-selective agonist, N-ethylcarboxamidoadenosine (NECA), and the potency of all test agonists is expressed relative to that of the NECA standard.
Molecule,Adenosine A1 receptor ECR* [1],Adenosine A3 receptor ECR* [2]
"C#C[C@H]1O[C@@H](n2cnc3c(Nc4cccc(F)c4C)ncnc32)[C@H](O)[C@@H]1O [Example 37, (2R,3R,4S,5R)-5-ethynyl-2-{6-[(3-fluoro-2-methylphenyl)amino]-9H-purin-9-yl}tetrahydrofuran-3,4-diol]",4.79,>145
"C#C[C@H]1O[C@@H](n2cnc3c(Nc4cccc(Cl)c4C)ncnc32)[C@H](O)[C@@H]1O [Example 38, (2R,3R,4S,5R)-2-{6-[(3-Chloro-2-methylphenyl)amino]-9H-purin-9-yl}-5-ethynyltetrahydrofuran-3,4-diol]",5.45,>145
"C#C[C@H]1O[C@@H](n2cnc3c(Nc4ccc(Cl)cc4C)ncnc32)[C@H](O)[C@@H]1O [Example 39, (2R,3R,4S,5R)-2-{6-[(4-Chloro-2-methylphenyl)amino]-9H-purin-9-yl}-5-ethynyltetrahydrofuran-3,4-diol]",7.36,>168
"C#C[C@H]1O[C@@H](n2cnc3c(Nc4cc(Cl)ccc4C)ncnc32)[C@H](O)[C@@H]1O [Example 40, (2R,3R,4S,5R)-2-{6-[(5-chloro-2-methylphenyl)amino]-9H-purin-9-yl}-5-ethynyltetrahydrofuran-3,4-diol]",16.94,>505
"C#C[C@H]1O[C@@H](n2cnc3c(Nc4ccc(F)c(F)c4)ncnc32)[C@H](O)[C@@H]1O [Example 43, (2R,3R,4S,5R)-2-{6-[(3,4-Difluorophenyl)amino]-9H-purin-9-yl}-5-ethynyltetrahydrofuran-3,4-diol]",34.9,>188
"(2R,3R,4S,5R)-2-[6-(cyclobutylamino)-9H-purin-9-yl]-5-ethynyltetrahydrofuran-3,4-diol [Example 5]",3,>196
"(2R,3R,4S,5R)-5-Ethynyl-2-{6-[(trans-4-hydroxycyclohexyl)amino]-9H-purin-9-yl}tetrahydrofuran-3,4-diol [Example 19]",8.57,>3208
